The structures appear in SMILES notation.

The text below walks through data of patent US10716869B2, “Radiolabeled macrocyclic EGFR inhibitor” (Oncodesign SA, priority 2016, dated 2020).

One data set relates to NCI-H1975 tumors. The experiment in a line: tumor uptake in xenograft-bearing Nude rats. The note with it: NCI-H1975, at 180 min. It counts as in vivo. How it is done: (§1) Dynamic PET scan imaging and ex vivo gamma counting were performed on three cancer xenografts (NCI-H441, NCI-H3255, NCI-H1975) in Nude rats. Xenografts were initiated in athymic, Hsd:RH-Foxnlrnu rats (Harlan, The Netherlands) by subcutaneous injection of 2×10^7 cells in 200 μL RPMI 1640 in the left and right flanks. NCI-H3255 tumor cells were injected in the right flank and NCI-H441 or NCI-H1975 in the left flank. Each study consisted in two experiments on 18 or 19 rats, for a total of 113 rats. Injection of NCI-H3255 cells was performed on DO, 24 to 72 hours after a whole-body irradiation with a […] (5 Gy, ^60Co, BioMep SARL, Bretenières, France). […] Tumors were grown until a target volume of 500-1500 mm^3 for both tumors was reached, whenever possible. All procedures using animals were approved by the Animal Care and Use Committee of Oncodesign (CNREEA agreement No 91).
(§2) The radiotracer solution was diluted in NaCl 0.9% to prepare a solution of activity 4-6 MBq (gamma-counting experiments) or 25-35 MBq (PET imaging experiments) in a volume of 300-400 or 600-800 μL, respectively. The radioactivity in the syringe was measured before and after tracer injection to determine the injected dose (ID) to animals. Rats were anesthetized with inhaled isoflurane (2% in air) for compound injection and throughout the course of image acquisition. After compound injection, rats were allowed to wake up and put back in their cage for an uptake period ranging from 20 to 120 minutes depending on the experiment.
(§3) For ex vivo gamma counting, after the determined uptake period or after imaging, rats were euthanized by decapitation, and the following organs were harvested and weighed: tumor, kidneys, blood, liver, heart, tail, thigh muscle, lungs, spleen and skin. Tracer distribution was assessed by determining ^18F content in each tissue with a gamma-well counter (PerkinElmer 2480 Wizard2 3). Counting data are reported as % ID per gram of tissue (% ID/g). Once radioactivity in organs was measured, some samples were prepared for immunohistochemistry.
(§4) For imaging experiments, rats were positioned prone in a dedicated rat imaging chamber (Minerve, France). Their body temperature was maintained by a flow of warm air through the structure of the imaging bed. PET imaging was performed on a microPET eXplore Vista CT (General Electric Healthcare) system. The Vista system, equipped with 36 dual-layer LYSO/GSO phoswich detector modules, has an effective axial/transaxial field of view of 4.8/6.7 cm. The spatial resolution is <2 mm in all directions and in the whole field of view. The sensitivity is above 2.5% in the whole field of view. After a scout image to adjust the position of the field of view, a CT scan was acquired (140 μA, 40 kV). […]

The test system of the next data set is NCI-H441 tumors. The experiment in a line: tumor uptake in xenograft-bearing Nude rats. It counts as in vivo. The settings on record: NCI-H441, at 180 min. As for the experimental part: as §1, §2, §3, §4
For the next data set, the system named is NCI-H3255 tumors. Briefly: tumor uptake in xenograft-bearing Nude rats. It counts as in vivo. As for the experimental part: as §1, §2, §3, §4
The nature of data set [1]: biodistribution by ex vivo γ-counting in Sprague Dawley rats. As for the experimental part:
To evaluate the biodistribution of the pure S (II) and R (III) enantiomers compared to compound (I), dynamic PET scan imaging and ex vivo gamma counting were performed on Sprague Dawley rats. Animals were injected with the radiotracer solution diluted in NaCl 0.9% to prepare a solution of activity 4-6 MBq (gamma-counting experiments) or 11-13 MBq (PET imaging experiments) in a volume of 300-400 or 600-800 μL, respectively. Radioactivity content in all biological samples was determined with scintillation γ-counter (Cobra 4180, Perkin-Elmer Inc.).
At the light of the biodistribution data of compound (I), the biodistribution of the R (III)- and S (II)-enantiomers was assessed by γ-counting in the organs in which the accumulation of compound (I) was prominent (that is: blood, heart, kidneys, liver, stomach, small intestine and colon). Two timepoints were selected: 5 and 30 minutes post-injection. […] The higher uptakes of R enantiomer (III) and S enantiomer (II) in these organs were expected to be observed at early timepoints after injection, giving the highest signals in the γ-counter and therefore making the comparison of biodistribution data more relevant. Besides, as PET images were acquired with compound (I), PET imaging was included in the evaluation of the biodistribution of R enantiomer and S enantiomer. This gave the opportunity to had one additional timepoint at 4 hours post-injection for collection of major organs and determination of radioactivity content by ex vivo γ-counting.

In the case of `CC(C)C1NC(=O)Cc2ccc(Cl)cc2Nc2ncnc3cc(OCC[18F])c(cc23)OCCCNC1=O` (centres unmarked) [Compound (I)], the “normalized uptake (tumor over muscle)” value is 3.6 in the data set on NCI-H1975 tumors; 2.6 with NCI-H441 tumors; 12 with NCI-H3255 tumors (NCI-H3255, at 180 min). Besides, in the data set with NCI-H3255 tumors (stable between 90 min and 180 min), the “uptake in NCI-H3255 tumors” value is “around 0.2 % ID/g”. Besides, the uptake in liver in data set [1] (5 minutes post injection) was 1.66±0.43 % ID/g; in data set [1] (30 minutes post injection), 0.37±0.07 % ID/g. The entries for the “uptake in small intestine” value in data set [1] (5 minutes post injection) and in data set [1] (thirty minutes post-injection) were 0.28±0.15 % ID/g and 0.40±0.40 % ID/g, respectively. The compound further yielded an uptake in blood in data set [1] (5 minutes post-injection) of 0.13±0.02 % ID/g. For the same compound, the uptake in heart in data set [1] (5 minutes post-injection) is given as 0.91±0.12 % ID/g; in data set [1] (30 minutes post-injection), 0.23±0.05 % ID/g. Also, the figures for the uptake in kidneys in data set [1] (5 minutes post-injection) and in data set [1] (30 minutes timepoint) were 5.07±0.30 % ID/g and 1.47±0.36 % ID/g, respectively. The uptake in stomach is recorded as 1.27±2.13% in data set [1] (5 minutes post-injection, unit printed as %); 2.72±4.75 % ID/g in data set [1] (30 minutes timepoint); 0.14±0.23 % ID/g in data set [1] (four hours post-injection). Also, in data set [1] (four hours post-injection), the uptake in colon came out at 10.55±4.53 % ID/g.
